Experimental data taken from patent US12139520B2 (priority 2020, dated 2024).
Bridge positions count the residues as written; N and C are the ends. Square brackets hold non-standard residues; d marks the D form. Peptide text beside a SMILES is read from it. Hyp = O=C(O)[C@@H]1C[C@@H](O)CN1; Cit = NC(=O)NCCC[C@H](N)C(=O)O

What was measured:
[1] = Physical stability of peptide analogues (Thioflavin T fibrillation); assay type: physicochemical; conditions: maximum ThT signal normalized between hAMY maximum and buffer background; 40° C., shaking, four days; pH 7 per table title
How it was run: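 1 h in 50 mM NaOAc pH 4 / 50 mM NaPi pH 7; + ThT 4 μM final; 40 °C, 700 rpm linear shake 5 min pre-read; ex 450, em 480 nm q10 min × 4 d; LOESS smoothing; max signal normalised to hAMY max vs buffer blank.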

hAMY3 receptor = target: T1, hAMY3 receptor (Homo sapiens, UniProt O60896+P30988); assay: cAMP assay for in vitro receptor activation, hAMY3-R; assay type: cell-based; conditions: cAMP assay, hAMY3 receptor; read-out: hAMY3R EC50
T1 sequence (P30988 25-474): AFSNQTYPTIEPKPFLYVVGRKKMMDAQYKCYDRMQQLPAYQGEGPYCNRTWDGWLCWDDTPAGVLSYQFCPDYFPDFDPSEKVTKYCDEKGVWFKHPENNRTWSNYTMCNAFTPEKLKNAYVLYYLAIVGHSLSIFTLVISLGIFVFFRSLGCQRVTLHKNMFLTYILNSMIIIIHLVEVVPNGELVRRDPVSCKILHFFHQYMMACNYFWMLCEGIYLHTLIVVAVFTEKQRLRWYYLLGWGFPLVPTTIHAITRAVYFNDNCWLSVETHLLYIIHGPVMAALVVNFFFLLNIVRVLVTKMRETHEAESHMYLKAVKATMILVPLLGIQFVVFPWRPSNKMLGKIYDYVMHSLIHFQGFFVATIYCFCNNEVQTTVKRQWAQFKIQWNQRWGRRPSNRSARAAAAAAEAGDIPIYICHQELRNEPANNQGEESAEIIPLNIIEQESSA
T1 sequence (O60896 24-148 partner): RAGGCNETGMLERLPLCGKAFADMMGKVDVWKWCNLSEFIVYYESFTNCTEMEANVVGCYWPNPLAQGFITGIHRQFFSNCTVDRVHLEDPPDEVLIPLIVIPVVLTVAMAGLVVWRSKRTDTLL
How it was run: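 Stable hAMY3 cells; DPBS + 0.05% casein + 0.5 mM IBMX; graded compound doses, 30 min, RT; cAMP via HTRF Gs kit, TR-FRET read at 1 h.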

hAM1 receptor = hAM1 receptor (Homo sapiens, UniProt O60895+Q16602); assay: cAMP assay for in vitro receptor activation, hAM1-R; assay type: cell-based; conditions: cAMP assay, hAM1 receptor; read-out: hAM1R EC50
Sequence of hAM1 receptor (Q16602 23-461): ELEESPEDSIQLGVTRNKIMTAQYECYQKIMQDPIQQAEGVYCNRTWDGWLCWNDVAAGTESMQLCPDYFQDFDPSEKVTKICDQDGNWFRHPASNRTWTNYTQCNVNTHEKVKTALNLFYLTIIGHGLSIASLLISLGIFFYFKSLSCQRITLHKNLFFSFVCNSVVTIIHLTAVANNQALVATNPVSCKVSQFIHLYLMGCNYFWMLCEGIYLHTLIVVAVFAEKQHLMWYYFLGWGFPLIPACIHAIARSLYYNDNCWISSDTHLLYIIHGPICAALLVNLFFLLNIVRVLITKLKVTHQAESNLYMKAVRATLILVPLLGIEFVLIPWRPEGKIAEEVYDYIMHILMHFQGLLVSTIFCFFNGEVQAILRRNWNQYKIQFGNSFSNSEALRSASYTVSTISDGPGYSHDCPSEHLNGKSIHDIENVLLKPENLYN
Sequence of hAM1 receptor (O60895 43-175 partner): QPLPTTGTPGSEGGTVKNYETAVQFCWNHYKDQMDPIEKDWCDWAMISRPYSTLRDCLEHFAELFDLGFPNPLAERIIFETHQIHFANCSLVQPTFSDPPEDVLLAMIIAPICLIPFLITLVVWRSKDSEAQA
How it was run: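 A subcloned monoclonal line stably expressing hAM1 receptor is thawed and plated at 8000 cells/well. The assay buffer is DPBS with 0.05% casein and 0.5 mM IBMX, and receptor activation is followed by cAMP levels.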

Row | SMILES | Max ThT signal (%) [1] [%] | EC50 (hAMY3 receptor) [nM] | EC50 (hAM1 receptor) [nM]
1 | CC[C@H](C)[C@H](NC(=O)[C@H](CCC(N)=O)NC(=O)[C@H](Cc1c[nH]cn1)NC(=O)[C@H](C)NC(=O)[C@H](CC(C)C)NC(=O)[C@H](CCCNC(=N)N)NC(=O)[C@H](CCC(N)=O)NC(=O)[C@@H](NC(=O)[C@@H](NC(=O)[C@@H]1CSSC[C@H](NC(=O)CN)C(=O)N[C@@H](CCCNC(=N)N)C(=O)N[C@@H]([C@@H](C)O)C(=O)NCC(=O)N[C@@H]([C@@H](C)O)C(=O)N1)[C@@H](C)O)C(C)C)C(=O)N[C@@H](Cc1ccc(O)cc1)C(=O)N[C@@H](CCC(N)=O)C(=O)N[C@@H](Cc1ccccc1)C(=O)N[C@H](C(=O)N[C@@H](CC(N)=O)C(=O)N[C@@H](CCCCN)C(=O)N[C@@H](CC(=O)O)C(=O)N[C@@H](CCCCN)C(=O)N[C@@H](CC(=O)O)C(=O)N[C@@H](CC(N)=O)C(=O)N[C@H](C(=O)N[C@@H](C)C(=O)N1CCC[C@H]1C(=O)N[C@@H](CCCNC(=N)N)C(=O)N[C@@H](CO)C(=O)N[C@@H](CCCCN)C(=O)N[C@H](C(=O)N[C@@H](CO)C(=O)N1CCC[C@H]1C(=O)N[C@@H](CCC(N)=O)C(=O)N[C@H](C(=O)N[C@@H](Cc1c[nH]c2ccccc12)C(N)=O)[C@@H](C)O)[C@@H](C)CC)C(C)C)[C@@H](C)O [compound 226] (H-GCRTGTCTVQRLAHQIYQFTNKDKDNVAPRSKISPQTW-NH2; disulfide 2-7; N-terminus assumed) | 27.000 | 0.186 | > 5000
2 | CC[C@H](C)[C@H](NC(=O)[C@H](CCC(N)=O)NC(=O)[C@H](Cc1c[nH]cn1)NC(=O)[C@H](C)NC(=O)[C@H](CC(C)C)NC(=O)[C@H](CCCNC(=N)N)NC(=O)[C@H](CCC(N)=O)NC(=O)[C@@H](NC(=O)[C@@H](NC(=O)[C@@H]1CSSC[C@H](NC(=O)[C@@H](N)CCCCN)C(=O)N[C@@H](CC(N)=O)C(=O)N[C@@H]([C@@H](C)O)C(=O)N[C@@H](C)C(=O)N[C@@H]([C@@H](C)O)C(=O)N1)[C@@H](C)O)C(C)C)C(=O)N[C@@H](Cc1ccc(O)cc1)C(=O)N[C@@H](CCC(N)=O)C(=O)N[C@@H](C)C(=O)N[C@H](C(=O)N[C@@H](CC(=O)O)C(=O)N[C@@H](CCCCN)C(=O)N[C@@H](CC(=O)O)C(=O)N[C@@H](CCCCN)C(=O)N[C@@H](CC(=O)O)C(=O)N[C@@H](CC(N)=O)C(=O)N[C@H](C(=O)N[C@@H](C)C(=O)N1CCC[C@H]1C(=O)N1CCC[C@H]1C(=O)N[C@H](C(=O)N[C@@H](CC(N)=O)C(=O)N[C@H](C(=O)NCC(=O)N[C@@H](CO)C(=O)N[C@@H](CC(N)=O)C(=O)NCC(=O)N1C[C@H](O)C[C@H]1C(N)=O)C(C)C)[C@@H](C)O)C(C)C)[C@@H](C)O [compound 114] (H-KCNTATCTVQRLAHQIYQATDKDKDNVAPPTNVGSNG[Hyp]-NH2; disulfide 2-7; N-terminus assumed) | 2.200 | 0.022 | > 5000
3 | CC[C@H](C)[C@H](NC(=O)[C@H](CCC(N)=O)NC(=O)[C@H](Cc1c[nH]cn1)NC(=O)[C@H](C)NC(=O)[C@H](CC(C)C)NC(=O)[C@H](CCCNC(N)=O)NC(=O)[C@H](CCC(N)=O)NC(=O)[C@@H](NC(=O)[C@@H](NC(=O)[C@@H]1CSSC[C@H](NC(=O)[C@@H](N)CCCCN)C(=O)N[C@@H](CC(N)=O)C(=O)N[C@@H]([C@@H](C)O)C(=O)N[C@@H](C)C(=O)N[C@@H]([C@@H](C)O)C(=O)N1)[C@@H](C)O)C(C)C)C(=O)N[C@@H](Cc1ccc(O)cc1)C(=O)N[C@@H](CCC(N)=O)C(=O)N[C@@H](Cc1ccccc1)C(=O)N[C@H](C(=O)N[C@@H](CC(=O)O)C(=O)N[C@@H](CCCCN)C(=O)N[C@@H](CC(=O)O)C(=O)N[C@@H](CCCCN)C(=O)N[C@@H](CC(=O)O)C(=O)N[C@@H](CC(N)=O)C(=O)N[C@H](C(=O)N[C@@H](C)C(=O)N1CCC[C@H]1C(=O)N[C@H](C(=O)N[C@@H](CC(N)=O)C(=O)N[C@H](C(=O)NCC(=O)N[C@@H](CO)C(=O)N[C@@H](CC(N)=O)C(=O)NCC(=O)N1C[C@H](O)C[C@H]1C(N)=O)C(C)C)[C@@H](C)O)C(C)C)[C@@H](C)O [compound 255] (H-KCNTATCTVQ[Cit]LAHQIYQFTDKDKDNVAPTNVGSNG[Hyp]-NH2; disulfide 2-7; N-terminus assumed) | 25.000 | 0.007 | > 5000

Further lines, results first:

Row | Max ThT signal (%) [1] [%] | EC50 (hAMY3 receptor) [nM] | EC50 (hAM1 receptor) [nM] | SMILES
4 | 9.600 | 0.004 | > 5000 | CC[C@H](C)[C@H](NC(=O)[C@H](CCC(N)=O)NC(=O)[C@H](Cc1c[nH]cn1)NC(=O)[C@H](C)NC(=O)[C@H](CC(C)C)NC(=O)[C@H](CCCNC(N)=O)NC(=O)[C@H](CCC(N)=O)NC(=O)[C@@H](NC(=O)[C@@H](NC(=O)[C@@H]1CSSC[C@H](NC(=O)[C@@H](N)CCCCN)C(=O)N[C@@H](CC(N)=O)C(=O)N[C@@H]([C@@H](C)O)C(=O)N[C@@H](C)C(=O)N[C@@H]([C@@H](C)O)C(=O)N1)[C@@H](C)O)C(C)C)C(=O)N[C@@H](Cc1ccc(O)cc1)C(=O)N[C@@H](CCC(N)=O)C(=O)N[C@@H](Cc1ccccc1)C(=O)N[C@H](C(=O)N[C@@H](CCCCN)C(=O)N[C@@H](CC(=O)O)C(=O)N[C@@H](CCCCN)C(=O)N[C@@H](CC(=O)O)C(=O)N[C@@H](CC(N)=O)C(=O)N[C@H](C(=O)N[C@@H](C)C(=O)N1CCC[C@H]1C(=O)N1CCC[C@H]1C(=O)N[C@H](C(=O)N[C@@H](CC(N)=O)C(=O)N[C@H](C(=O)NCC(=O)N[C@@H](CO)C(=O)N[C@@H](CC(N)=O)C(=O)NCC(=O)N1C[C@H](O)C[C@H]1C(N)=O)C(C)C)[C@@H](C)O)C(C)C)[C@@H](C)O [compound 253] (H-KCNTATCTVQ[Cit]LAHQIYQFTKDKDNVAPPTNVGSNG[Hyp]-NH2; disulfide 2-7; N-terminus assumed)
5 | 10.600 | 0.006 | > 5000 | CC[C@H](C)[C@H](NC(=O)[C@H](CCC(N)=O)NC(=O)[C@H](Cc1c[nH]cn1)NC(=O)[C@H](C)NC(=O)[C@H](CC(C)C)NC(=O)[C@H](CCCNC(N)=O)NC(=O)[C@H](CCC(N)=O)NC(=O)[C@@H](NC(=O)[C@@H](NC(=O)[C@@H]1CSSC[C@H](NC(=O)[C@@H](N)CCCCN)C(=O)N[C@@H](CC(N)=O)C(=O)N[C@@H]([C@@H](C)O)C(=O)N[C@@H](C)C(=O)N[C@@H]([C@@H](C)O)C(=O)N1)[C@@H](C)O)C(C)C)C(=O)N[C@@H](Cc1ccc(O)cc1)C(=O)N[C@@H](CCC(N)=O)C(=O)N[C@@H](Cc1ccccc1)C(=O)N[C@H](C(=O)N[C@@H](CC(=O)O)C(=O)N[C@@H](CCCCN)C(=O)N[C@@H](CC(=O)O)C(=O)N[C@@H](CCCCN)C(=O)N[C@@H](CC(=O)O)C(=O)N[C@@H](CC(N)=O)C(=O)N[C@@H](C)C(=O)N[C@@H](C)C(=O)N1CCC[C@H]1C(=O)N1CCC[C@H]1C(=O)N[C@H](C(=O)N[C@@H](CC(N)=O)C(=O)N[C@H](C(=O)NCC(=O)N[C@@H](CO)C(=O)N[C@@H](CC(N)=O)C(=O)NCC(=O)N1C[C@H](O)C[C@H]1C(N)=O)C(C)C)[C@@H](C)O)[C@@H](C)O [compound 251] (H-KCNTATCTVQ[Cit]LAHQIYQFTDKDKDNAAPPTNVGSNG[Hyp]-NH2; disulfide 2-7; N-terminus assumed)
